For one assay, the target named is T1, HDAC 3 (Homo sapiens, UniProt O15379).
T1 construct: purchased Active Motif, Belgium
The experiment in a line: Fluorometric HDAC assay, recombinant HDAC3. In kind it is biochemical. The method, then: The HDACi effect against HeLa nuclear extracts and recombinant proteins were measured using a fluorometric HDAC assay kit (Active Motif, Belgium) according to the manufacturer's instructions. […] A negative control containing trichostatin A at a final concentration of 2 μM was analyzed for each independent experiment.

Assay [1] relates to Pru Type II strain of T. gondii. The experiment in a line: Anti-Toxoplasma activity in infected HFF monolayers, type II Pru strain. In kind it is cell-based, Toxoplasma gondii. The following applies: for IC50: 24 h, type II strain, in HFF. The procedure: The antitrypanosomatid activity of the compounds was ascertained as follows. Leishmania parasites were cultured at 26 °C in SDM-79 medium supplemented with 10% fetal calf serum (FCS), and the antileishmanial activity was determined according to a previously published protocol for LUC-expressing and wild-type Leishmania ([Sereno et al., 2001], [Abbassi et al., 2008]). Trypanosoma brucei gambiense were grown at 26 °C in Cunningham's medium supplemented with 10% FCS, 2 mM GlutaMAX-1 (Gibco, USA), 100 U/ml penicillin, 100 μg/ml streptomycin and 20 mg/ml bovine hemin. The epimastigote form of Trypanosoma cruzi (strain Y cl7 scl2, lineage Tc2) (kindly provided by Philippe Truc and Christian Barnabé, UMR 177 IRD-CIRAD InterTryp, Montpellier, France) were grown at 26 °C in liver infusion tryptose (LIT) medium, supplemented with 10% FCS, 2 mM GlutaMAX™-I, 100 U/ml penicillin, 100 μg/ml streptomycin and bovine hemin (20 mg/l) (Gibco). The antitrypanosomatids activity was determined using a protocol that was initialy set up for wild-type Leishmania ([Abbassi et al., 2008]). To assess the drug activity on Toxoplasma gondii, confluent human foreskin fibroblast (HFF) monolayers were infected with YFP-type I Rh kindly provided by B. Striepen, see ([Striepen et al., 1998]) or Tomato-type II Pru kindly provided by N. Blanchard (Toulouse), expressing parasites at 5 × 10^4 per well, which were then centrifuged for 30 s at 1300 rpm and incubated for 30 min in a water bath at 37 °C to allow invasion. […] The number of infected cells, i.e., cells harboring a parasitophorous vacuole, and the number of parasites per vacuole were determined using an Olympus ScanR microscope ( × 20 objective) and ScanR software. The parasitic index in % compared to the control was calculated as follows: (PI=((number of parasite/100 cells in treated wells) x (% of infected macrophage in treated well)/(number of parasite/100 cells in untreated wells) x (% of infected macrophage in untreated wells))*100).

This note sets out measurements from paper PMC6114082, “Synthesis of aminophenylhydroxamate and aminobenzylhydroxamate derivatives and in vitro screening for antiparasitic and histone deacetylase inhibitory activity” (International Journal for Parasitology: Drugs and Drug …, 2018).

T1 sequence (O15379 whole entry): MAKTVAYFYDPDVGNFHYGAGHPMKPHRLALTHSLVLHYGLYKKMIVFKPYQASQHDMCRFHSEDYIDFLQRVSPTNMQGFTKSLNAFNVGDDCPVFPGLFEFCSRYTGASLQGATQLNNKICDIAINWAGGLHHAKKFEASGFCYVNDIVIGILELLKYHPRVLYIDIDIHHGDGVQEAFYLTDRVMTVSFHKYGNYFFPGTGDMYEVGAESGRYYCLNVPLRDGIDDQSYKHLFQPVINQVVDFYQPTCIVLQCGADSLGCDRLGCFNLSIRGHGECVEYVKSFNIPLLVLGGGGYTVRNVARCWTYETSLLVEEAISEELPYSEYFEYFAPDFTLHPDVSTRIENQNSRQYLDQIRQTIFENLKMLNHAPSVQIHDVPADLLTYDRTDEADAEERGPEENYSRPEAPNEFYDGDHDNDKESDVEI
T1 sequence (O75376 395-489 partner limits assumed): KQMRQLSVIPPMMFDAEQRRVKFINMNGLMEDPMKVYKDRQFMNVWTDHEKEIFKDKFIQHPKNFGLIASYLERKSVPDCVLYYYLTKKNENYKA

As for `COc1cccc(CC(=O)Nc2ccc(C(=O)NO)cc2)c1` [Compound 363, N-hydroxy-4-[2-(3-methoxyphenyl)acetamido]benzamide], the “Fold, HDAC 3” value at HDAC 3 (363 as compared to SAHA) is recorded as 1.06. In addition, the IC50 on HDAC 3 (recombinant protein, read-out: rHDAC 3 IC50) is 0.16 ± 0.052 µM; in assay [1] (Toxoplasma gondii) it was 2.25 µM; in assay [1] it was 2.27 µM. Moreover, in assay [1] (IC50 HFF / IC50 T. gondii type II Pru strain), the “IS^a selectivity index for T. gondii, second value marked #” value is on record as 46.

By IC50 is commonly meant the concentration at which inhibition is half-maximal.
